From paper PMC9465256, “Discovering monoacylglycerol lipase inhibitors by a combination of fluorogenic substrate assay and activity-based protein profiling” (Frontiers in Pharmacology, 2022)
Structures can show the parent of a compound that is named as a salt.

What was measured:
Assay type in all cases: biochemical
[1] = target: T1, human ABHD6 (Homo sapiens, UniProt Q9BV23); assay: ABHD6 activity assay (AA-HNA fluorogenic substrate); conditions: read-out: ABHD6 Inhibition (%)
T1 construct: expressed in transfected cells; host or cells: HEK293T (transient transfection; membrane fraction)
T1 sequence (Q9BV23 1-337): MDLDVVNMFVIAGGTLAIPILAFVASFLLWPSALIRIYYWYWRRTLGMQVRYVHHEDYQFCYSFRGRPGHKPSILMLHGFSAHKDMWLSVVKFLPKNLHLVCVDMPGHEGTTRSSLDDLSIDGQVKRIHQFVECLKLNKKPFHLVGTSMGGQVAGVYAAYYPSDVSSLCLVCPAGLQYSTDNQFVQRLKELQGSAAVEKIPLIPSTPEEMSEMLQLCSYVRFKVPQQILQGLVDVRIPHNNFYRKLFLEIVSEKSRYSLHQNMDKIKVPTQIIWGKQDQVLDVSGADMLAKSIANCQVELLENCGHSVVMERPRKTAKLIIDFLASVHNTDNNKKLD
Description: (§1) HEK293T cells were cultured at 37°C under 5% CO2 in a DMEM medium with stable glutamine and phenolred, containing 10% fetal bovine serum (FBS, Gibco), penicillin, and streptomycin. The cells were passaged every 2–3 days by resuspension in the medium at ∼90% confluence. The membranes used in this study were prepared from transiently transfected HEK293T cells. Briefly, 1 day prior to transfection, ∼10^7 cells were seeded in 15 cm plates, and then the cells were transfected by the addition of a mixture of polyethyleneimine and plasmid DNA (3:1, 60, and 20 µg) in 2 ml of medium (without serum). Of note, the empty pcDNA3.1 vector was used in the Mock-control. After 24 h, the medium was removed and the cells were refreshed with fresh medium. After 72 h, the cells were harvested by suspending in 20 ml of medium, and the supernatant was removed by centrifugation for 10 min at 1,000 rpm. The cell pellet was flash frozen in liquid nitrogen and stored at −80°C until use. Subsequently, the cell pellets were suspended in lysis buffer (30 mM Tirs, pH 7.5, 1 mM MgCl2, 25 U/ml Benzonase), which was homogenized by sonication (3 × 10 bursts) and incubated for 30 min on ice. The membrane fractions overexpressing MAGL/ABHD6/ABHD12 were separated by ultracentrifuge (100,000 g, 30 min, 4 C). The protein concentration was determined with a Qubit protein assay (Invitrogen). The protein samples were quickly frozen in liquid nitrogen and stored at −80 C until use.
The MAGL activity assay is based on the hydrolysis of 2-arachidonoylglycerol-based fluorogenic substrate by MAGL-overexpressing membrane preparations from transiently transfected HEK293T cells. In brief, the reactions were performed in HEPES buffer (40 mM HEPES, pH 7.5, 0.1 mg/ml BSA) in black, flat bottom 96-well plates. The final protein concentration of membrane fractions from overexpressing human MAGL HEK293T cells was 12.5 μg/ml 5 µl of inhibitors were added from×40 concentrated DMSO stocks in the 96-well plate containing 145 µl assay buffer, followed by the addition of 40 µl of the protein (12.5 μg/ml). After the incubation of the inhibitor-protein complex for 30 min, 10 µl of the fluorogenic substrate (AA-HNA, 200 µM) was added and fluorescence was measured in 1 min intervals for 30 min on a plate reader (BioTek). Final assay concentrations: 12.5 μg/ml MAGL, […], and […] in the total volume of 200 µl. All the measurements were performed in N = 2, n = 2 for inhibitors and N = 2, n = 4 for controls with Z′ value ≥0.6. The slope is determined in 5–15 min for all the experiments.
The ABHD6 activity assay is based on the same principle as the MAGL activity assay described earlier, but with human ABHD6 overexpressing membrane preparations at a final protein concentration of 50 μg/ml and 200 µM AA-HNA. Other conditions are the same as those of the MAGL activity assay.

[2] = target: T2, human ABHD12 (Homo sapiens, UniProt Q8N2K0); assay: ABHD12 activity by competitive ABPP with FP-TAMRA; conditions: read-out: ABHD12 Inhibition (%)
T2 construct: expressed in transfected cells; host or cells: HEK293T (transient transfection; membrane fraction)
T2 sequence (Q8N2K0 1-398): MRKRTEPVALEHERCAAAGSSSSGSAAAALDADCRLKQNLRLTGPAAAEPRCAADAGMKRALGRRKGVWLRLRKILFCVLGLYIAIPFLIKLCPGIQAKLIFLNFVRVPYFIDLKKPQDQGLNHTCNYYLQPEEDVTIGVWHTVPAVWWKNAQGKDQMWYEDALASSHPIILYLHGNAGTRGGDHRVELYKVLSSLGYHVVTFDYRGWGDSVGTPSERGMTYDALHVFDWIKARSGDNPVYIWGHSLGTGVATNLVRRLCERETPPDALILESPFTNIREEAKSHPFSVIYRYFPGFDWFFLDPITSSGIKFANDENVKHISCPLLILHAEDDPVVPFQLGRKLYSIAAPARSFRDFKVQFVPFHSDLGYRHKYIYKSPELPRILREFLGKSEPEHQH
Description: as §1
The ABHD12 activity assay is based on competitive activity-based protein profiling (ABPP) with human ABHD12 overexpressing membrane fractions. Briefly, the membrane proteome (1 mg/ml, 20 µl) was incubated at room temperature with 0.5 µl DMSO (vehicle) or inhibitor for 30 min. Subsequently, the samples were treated with the activity-based probe FP-TAMRA (250 nM, final concentration) for 20 min. The reactions were then quenched by 10 µl sample buffer (×4) (final concentrations: 60 mM Tris, pH 6.8, 2% (w/v) SDS, 10% (v/v) glycerol, 5% (v/v) β-mercaptoethanol, 0.01% (v/v) bromophenol blue). The samples were directly loaded and resolved on SDS-PAGE gel (10% acrylamide), which were then scanned using a ChemiDoc MP system (Cy3 settings, BioRad).

[3] = target: T3, human MAGL (Homo sapiens, UniProt Q99685); assay: MAGL activity assay (AA-HNA fluorogenic substrate); conditions: read-out: MAGL Inhibition (%)
T3 construct: expressed in transfected cells; host or cells: HEK293T (transient transfection; membrane fraction)
T3 sequence (Q99685 1-303): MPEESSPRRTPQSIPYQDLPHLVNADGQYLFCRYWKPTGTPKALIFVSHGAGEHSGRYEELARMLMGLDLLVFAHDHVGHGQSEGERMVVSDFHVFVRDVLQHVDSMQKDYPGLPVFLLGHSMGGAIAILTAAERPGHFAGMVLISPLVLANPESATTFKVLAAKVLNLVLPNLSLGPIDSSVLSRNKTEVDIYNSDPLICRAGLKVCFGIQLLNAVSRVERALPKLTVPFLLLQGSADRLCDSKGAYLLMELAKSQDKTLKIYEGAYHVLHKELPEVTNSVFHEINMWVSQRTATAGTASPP
Description: as §1
The MAGL activity assay is based on the hydrolysis of 2-arachidonoylglycerol-based fluorogenic substrate by MAGL-overexpressing membrane preparations from transiently transfected HEK293T cells. In brief, the reactions were performed in HEPES buffer (40 mM HEPES, pH 7.5, 0.1 mg/ml BSA) in black, flat bottom 96-well plates. […] After the incubation of the inhibitor-protein complex for 30 min, 10 µl of the fluorogenic substrate (AA-HNA, 200 µM) was added and fluorescence was measured in 1 min intervals for 30 min on a plate reader (BioTek). […] All the measurements were performed in N = 2, n = 2 for inhibitors and N = 2, n = 4 for controls with Z′ value ≥0.6. The slope is determined in 5–15 min for all the experiments.

[4] = 100 µM, AA-HNA substrate assay, Supplementary Table 2
[5] = 100 µM compound, competitive ABPP with probe FP-TAMRA (250 nM)
[6] = 100 µM, AA-HNA substrate assay, Supplementary Table 1

Molecule | activity [1, 4] [%] | activity [2, 5] [%] | activity [3, 6] [%] | activity at 100 µM [1, 4] [%] | activity at 100 µM [2, 5] [%] | activity at 100 µM [3, 6] [%] | also measured
CC(=O)c1c(O)c(C)c(O)c2c1OC1=CC(=O)C(C(C)=O)C(=O)C12C [compound 3, D-Usnic Acid] | 97.9 | 68.8 | 85.6 | – | – | – | –
COc1cc(/C=C/C(=O)O)ccc1O [compound 32, Ferulic Acid] | 92.4 | 80.8 | 104 | – | – | – | –
Myricitrin [compound 53] | – | – | – | – | – | – | percent inhibition of ABHD6 [1, 4]: 105%; percent inhibition [2, 5]: 70%; percent inhibition [3, 6]: 93.1%
CC1(C)[C@@H](O[C@H]2O[C@H](C(=O)O)[C@@H](O)[C@H](O)[C@H]2O[C@@H]2O[C@H](C(=O)O)[C@@H](O)[C@H](O)[C@H]2O)CC[C@]2(C)[C@H]3C(=O)C=C4[C@@H]5C[C@@](C)(C(=O)O)CC[C@]5(C)CC[C@@]4(C)[C@]3(C)CC[C@@H]12 [compound 33, Glycyrrhizin] | – | – | – | 92.9 | 69.3 | 99.5 | –
Cc1cc(=O)oc2cc(O)ccc12 [compound 5, 4-Methylumbelliferone] | – | – | – | 92.5 | 71 | 90.1 | –
COc1ccc(-c2coc3cc(O)ccc3c2=O)cc1 [compound 31, Formononetin] | – | – | – | 94.1 | 77.5 | 103 | –
OCc1c[nH]c2ccccc12 [compound 42, Ndole-3-carbinol] | 101 | 80.9 | 70.6 | – | – | – | –
CC(C)(C)[C@]1(O)CC2OC(=O)CC23C(=O)OC2OC(=O)[C@H](O)C231 (stereo partly drawn) [compound 18, Bilobalide] | – | – | – | – | – | – | percent inhibition of ABHD6 at 100 µM [1]: 99.5%; percent inhibition at 100 µM [2]: 83%; percent inhibition at 100 µM [3]: 97.8%
O=C(O[C@@H]1Cc2c(O)cc(O)cc2O[C@@H]1c1cc(O)c(O)c(O)c1)c1cc(O)c(O)c(O)c1 [compound 2, (-)-Epigallocatechin Gallate] | – | – | – | 95 | 59.6 | 38.9 | –
COc1ccc(CCC(=O)c2c(O)cc(O[C@@H]3O[C@H](CO)[C@@H](O)[C@H](O)[C@H]3O[C@@H]3O[C@@H](C)[C@H](O)[C@@H](O)[C@H]3O)cc2O)cc1O [compound 56, Neohesperidin dihydrochalcone] | – | – | – | 105 | 83.1 | 87.4 | –
CN(C)Cc1c[nH]c2ccccc12 [compound 35, Gramine] | – | – | – | 99 | 82.7 | 97.3 | –
O=c1c(O)c(-c2ccc(O)cc2O)oc2cc(O)cc(O)c12 [compound 51, Morin hydrate] | 99.4 | 31.6 | 49.4 | – | – | – | –
O=c1c(O)c(-c2cc(O)c(O)c(O)c2)oc2cc(O)cc(O)c12 [compound 52, Myricetin] | – | – | – | 100 | 63.9 | 41.2 | –
O=C(O)[C@H]1O[C@@H](Oc2cc3oc(-c4ccccc4)cc(=O)c3c(O)c2O)[C@H](O)[C@@H](O)[C@@H]1O [compound 15, Baicalin] | – | – | – | 121 | 85.9 | 80.3 | –
C[N+](C)(C)CC(O)CC(=O)O (racemic) [compound 27, DL-Carnitine HCl] | 88.9 | 76.6 | 97.6 | – | – | – | –
